This is an account of results in US9394297B2, “Amides as pim inhibitors” (AMGEN INC., priority 2012, dated 2016).

Read-outs that look alike come from different tables or passages of the source. Bounds are passed on as bounds.

One test has as its system KMS-12-BM cell lines. Put plainly: KMS12 #2 flow cytometry assay (phospho-BAD Ser112). The format is cell-based. The note with it: Homo sapiens, 110 min; KMS-12-BM cells, pBAD Ser112 by flow cytometry, 110 min with compound; read-out: KMS-12-Flow IC50 IP. In general terms: In flow cytometry, cells or beads pass a laser one at a time.
For the next test, the target named is Pim-1 (Homo sapiens (Human), UniProt P11309). Put plainly: Pim-Mn enzyme assay (HTRF, 384-well), Pim-1. Format: biochemical. Particulars: read-out: Pim-1-Mn IC50 IP. A general note: Time-resolved FRET reads energy transfer from a long-lived donor to a nearby acceptor.
Chain of Pim-1 (P11309 whole entry): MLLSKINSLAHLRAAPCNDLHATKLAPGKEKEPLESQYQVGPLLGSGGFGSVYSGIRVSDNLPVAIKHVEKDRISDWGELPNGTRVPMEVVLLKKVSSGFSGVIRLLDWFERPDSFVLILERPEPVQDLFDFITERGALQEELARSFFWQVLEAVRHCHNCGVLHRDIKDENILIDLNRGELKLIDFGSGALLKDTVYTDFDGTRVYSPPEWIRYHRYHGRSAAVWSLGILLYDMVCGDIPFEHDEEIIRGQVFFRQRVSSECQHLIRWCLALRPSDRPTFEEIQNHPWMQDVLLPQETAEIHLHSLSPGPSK
Another test has as its target Pim-2 (Homo sapiens (Human), UniProt Q9P1W9). In words: Pim-Mn enzyme assay (HTRF, 384-well), Pim-2. The format is biochemical. Particulars: read-out: Pim-2-Mn IC50 IP.
The mark [1] stands for this setting: Pim-1 enzyme 5 pM, ATP 1.5 μM, BAD (S112) 0.5 μM, HTRF, 22-point curve.
Where [2] appears, read: Pim-2 enzyme 0.5 pM, ATP 1.5 μM, BAD (S112) 0.5 μM, HTRF, 22-point curve.

Chain of Pim-2 (Q9P1W9 whole entry): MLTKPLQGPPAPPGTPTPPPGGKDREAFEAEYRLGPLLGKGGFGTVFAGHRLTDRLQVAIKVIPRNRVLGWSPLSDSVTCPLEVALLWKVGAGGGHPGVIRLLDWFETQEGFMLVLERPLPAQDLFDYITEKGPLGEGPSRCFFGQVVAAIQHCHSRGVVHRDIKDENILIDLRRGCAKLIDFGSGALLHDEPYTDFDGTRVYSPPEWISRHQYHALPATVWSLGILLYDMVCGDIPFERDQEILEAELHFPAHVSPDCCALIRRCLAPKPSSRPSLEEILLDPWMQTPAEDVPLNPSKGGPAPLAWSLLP

For the molecule `CN(c1ncc2cccc(-c3cc4c([nH]3)CCNC4=O)c2n1)C(C)(C)C` [Example 377, 2-(2-(tert-butyl(methyl)amino)quinazolin-8-yl)-6,7-dihydro-1H-pyrrolo[3,2-c]pyridin-4(5H)-one], the concentration for half-maximal inhibition (IC50) with KMS-12-BM cell lines turned out to be 1630 nM; on Pim-1 (setting [1]), 2.43 nM; at Pim-2 (setting [2]), 3.32 nM.

Regarding `Cc1nc2ccc(F)c(-c3cc4c([nH]3)C3(CC3)NC4=O)c2nc1NC1(C)CC1` [Example 378, 2′-(6-fluoro-2-methyl-3-((1-methylcyclopropyl)amino)quinoxalin-5-yl)-1′H-spiro[cyclopropane-1,6′-pyrrolo[3,4-b]pyrrol]-4′(5′H)-one], the IC50 with KMS-12-BM cell lines amounted to 16.1 nM; at Pim-1, 0.0295 nM; at Pim-2 it was 0.0354 nM.

Regarding `Cc1nc2ccc(F)c(-c3cc4c([nH]3)[C@@H](C)NC4=O)c2nc1NC1(C)CC1` [Example 379, (R)-2-(6-fluoro-2-methyl-3-((1-methylcyclopropyl)amino)quinoxalin-5-yl)-6-methyl-5,6-dihydropyrrolo[3,4-b]pyrrol-4(1H)-one], the concentration for half-maximal inhibition (IC50) is 11.3 nM in the test with KMS-12-BM cell lines, 0.0376 nM at Pim-1 (setting [1]) and 0.0484 nM at Pim-2 (setting [2]).

In the case of `Cc1nc2ccc(F)c(-c3cc4c([nH]3)[C@H](C)NC4=O)c2nc1NC1(C)CC1` [Example 380, (S)-2-(6-fluoro-2-methyl-3-((1-methylcyclopropyl)amino)quinoxalin-5-yl)-6-methyl-5,6-dihydropyrrolo[3,4-b]pyrrol-4(1H)-one], the half-maximal inhibitory concentration (IC50) in the test on KMS-12-BM cell lines turned out to be 34.7 nM; on Pim-1 (setting [1]), 0.249 nM; on Pim-2 (setting [2]) it was 0.385 nM.

As to `Cc1nc2cccc(-c3cc4c([nH]3)C3(CC3)NC4=O)c2nc1NCC(F)(F)F` [Example 381, 2′-(2-methyl-3-((2,2,2-trifluoroethyl)amino)quinoxalin-5-yl)-1′H-spiro[cyclopropane-1,6′-pyrrolo[3,4-b]pyrrol]-4′(5′H)-one], the figures for the IC50 in the test with KMS-12-BM cell lines, on Pim-1 and at Pim-2 were 215 nM, 1.6 nM and 1.36 nM, respectively.

`Cc1cccc(C)c1-c1cnc2cccc(-c3cc4c([nH]3)CCNC4=O)c2n1` [Example 401, 2-(3-(2,6-dimethylphenyl)-5-quinoxalinyl)-1,5,6,7-tetrahydro-4H-pyrrolo[3,2-c]pyridin-4-one]: the IC50 came out at 18500 nM in the test on KMS-12-BM cell lines, 19.5 nM at Pim-1 (setting [1]) and 34.9 nM at Pim-2 (setting [2]).

Regarding `CC(C)Nc1nc2c(-c3cc4c([nH]3)CCNC4=O)cccc2c(=O)n1-c1ccccc1` [Example 402, 2-((1-methylethyl)amino)-8-(4-oxo-4,5,6,7-tetrahydro-1H-pyrrolo[3,2-c]pyridin-2-yl)-3-phenyl-4(3H)-quinazolinone], the IC50 was determined as 590 nM in the test on KMS-12-BM cell lines, 5.91 nM at Pim-1 (setting [1]) and 5.87 nM on Pim-2 (setting [2]).

For the molecule `CC(C)Nc1nc2c(-c3cc4c([nH]3)CCNC4=O)cccc2c(=O)n1-c1cccnc1` [Example 403, 2-((1-methylethyl)amino)-8-(4-oxo-4,5,6,7-tetrahydro-1H-pyrrolo[3,2-c]pyridin-2-yl)-3-(3-pyridinyl)-4(3H)-quinazolinone], the results for the IC50 in the test on KMS-12-BM cell lines, at Pim-1 (setting [1]) and at Pim-2 (setting [2]) were more than 40000 nM, 11.5 nM and 16.4 nM, respectively.

In the case of `CC(C)(C)Nc1nc2c(-c3cc4c([nH]3)CCNC4=O)cccc2c(=O)n1-c1cccnc1` [Example 404, 2-(tert-butylamino)-8-(4-oxo-4,5,6,7-tetrahydro-1H-pyrrolo[3,2-c]pyridin-2-yl)-3-(3-pyridinyl)-4(3H)-quinazolinone], the half-maximal inhibitory concentration (IC50) with KMS-12-BM cell lines stood at 659 nM; at Pim-1 (setting [1]) it was 1.5 nM; on Pim-2 (setting [2]), 2.6 nM.

For the molecule `C[C@H]1NC(=O)c2cc(-c3cccc4c(=O)[nH]c(NC(C)(C)C)nc34)[nH]c21` [Example 408, 2-(tert-butylamino)-8-((6R)-6-methyl-4-oxo-1,4,5,6-tetrahydropyrrolo[3,4-b]pyrrol-2-yl)-4(3H)-quinazolinone], the IC50 with KMS-12-BM cell lines came to 47 nM; on Pim-1 (setting [1]), 0.1 nM; on Pim-2 (setting [2]), 0.24 nM.

In general, IC50 refers to the concentration that inhibits the measured activity by half.
